Experimental data published in ChEMBL document CHEMBL1201862, “PubChem BioAssay data set” (2004).
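Cells were grown in 96-well plates and exposed to each compound for 48 hours at five concentrations; endpoints were interpolated linearly between bracketing concentrations, or set to the highest concentration if not reached. The concentration for 50% growth inhibition is given as GI50.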 The source made the active and inactive calls. No stated cut-off is given here; in the data, active = GI50 up to about 1.1 µM and inactive = higher.

Key:
Assay in all cases: NCI tumour cell line growth inhibition, 48 h
T47D = tested on: T47D
RXF 631 = tested on: RXF 631
HOP-18 = tested on: HOP-18
DLD-1 = tested on: DLD-1
LXFL 529 = tested on: LXFL 529
M19-MEL = tested on: M19-MEL
SNB-78 = tested on: SNB-78
KM-20L2 = tested on: KM-20L2
XF498 = tested on: XF498

## Cc1ccc(S(=O)(=O)OC2C3OC(C)(C)OC3OC2C(c2cc(O)c3c(c2O)C(=O)c2ccccc2C3=O)c2cc(O)c3c(c2O)C(=O)c2ccccc2C3=O)cc1 (centres undefined)
T47D
  GI50: > 10 µM (inactive)

## Cc1c(C(C)C)cc(OCCO)cc1C(C)C
T47D
  GI50: 26.9 µM (inactive)

## O=c1cc(-c2ccccc2)oc2c(-c3cc(Cl)cc4c(=O)cc(-c5ccccc5)oc34)cc(Cl)cc12
T47D
  GI50: 16.4 µM (inactive)

## c1csc(-c2ccc(-c3cccc4nsnc34)s2)c1
T47D
  GI50: 5.32 µM (inactive)

## CC1OC(n2cc(F)c(=O)[nH]c2=O)CCC1=O (centres undefined)
RXF 631
  GI50: 39.9 µM (inactive)
HOP-18
  GI50: 65.2 µM (inactive)
DLD-1
  GI50: 52.5 µM (inactive)
LXFL 529
  GI50: > 100 µM (inactive)
M19-MEL
  GI50: > 100 µM (inactive)
SNB-78
  GI50: > 100 µM (inactive)
KM-20L2
  GI50: 96.6 µM (inactive)

## N#CC(NNC(=O)Cc1ccccc1)c1c(O)ccc2ccccc12 (centres undefined)
HOP-18
  GI50: 4.36 µM (inactive)
DLD-1
  GI50: 3.96 µM (inactive)
T47D
  GI50: 3.45 µM (inactive)
M19-MEL
  GI50: 2.71 µM (inactive)
SNB-78
  GI50: 13.6 µM (inactive)
KM-20L2
  GI50: 15.8 µM (inactive)

## CSc1ccsc1-c1sc(-c2cc(SC)c(-c3sc(-c4cc(SC)c(-c5sccc5SC)s4)cc3SC)s2)cc1SC
T47D
  GI50: 28.2 µM (inactive)

## CCOC(=O)NC(C(C(=O)OCC)C(=O)OCC)(C(F)(F)F)C(F)(F)F
T47D
  GI50: > 100 µM (inactive)

## CCNCC(=O)Nc1ccc2c(c1)C(=O)c1ccc(NC(=O)CNCC)cc1C2=O
T47D
  GI50: 3.86 µM (inactive)

## COc1ccc(N2C(=O)C3c4[nH]c5ccccc5c4C4CCC(C(C)(C)C)CC4C3C2=O)cc1OC (centres undefined)
HOP-18
  GI50: 20.9 µM (inactive)
DLD-1
  GI50: 15.1 µM (inactive)
LXFL 529
  GI50: 18.5 µM (inactive)
M19-MEL
  GI50: 51.1 µM (inactive)
SNB-78
  GI50: 19.3 µM (inactive)
XF498
  GI50: 18.2 µM (inactive)
KM-20L2
  GI50: 36.8 µM (inactive)

## OC12CC/C(=N/OCc3ccccc3)CC1c1ccccc12 (centres undefined)
HOP-18
  GI50: > 100 µM (inactive)
DLD-1
  GI50: > 100 µM (inactive)
LXFL 529
  GI50: > 100 µM (inactive)
M19-MEL
  GI50: > 100 µM (inactive)
SNB-78
  GI50: > 100 µM (inactive)
KM-20L2
  GI50: > 100 µM (inactive)

## CCOC(=O)c1cc(/C=C/C(C)=C/C(=O)OC)oc1-c1ccccc1
HOP-18
  GI50: 42.9 µM (inactive)
DLD-1
  GI50: 66.7 µM (inactive)
M19-MEL
  GI50: > 100 µM (inactive)
XF498
  GI50: > 100 µM (inactive)
KM-20L2
  GI50: 81.5 µM (inactive)

## CCOC(=O)c1nc2ccccc2nc1Oc1ccc(F)cc1
T47D
  GI50: > 100 µM (inactive)

## COC(=O)CCc1ccc2c(c1)CC1(Cc3ccccc3C1)C2
T47D
  GI50: > 100 µM (inactive)

## CCn1c2ccccc2c(=O)c2c(OC)ccc(OC)c21
RXF 631
  GI50: 49.1 µM (inactive)
LXFL 529
  GI50: 34 µM (inactive)
M19-MEL
  GI50: 74 µM (inactive)
XF498
  GI50: 34.1 µM (inactive)
KM-20L2
  GI50: 92.5 µM (inactive)

## COc1ccc2oc(=O)c(-c3csc(-c4ccccc4)n3)cc2c1
T47D
  GI50: > 100 µM (inactive)

## C=CC/C(C(=O)OC)=C(/C(=O)OC)N(CCC)CCC
T47D
  GI50: > 100 µM (inactive)

## CC(=O)c1c(C)cc2cccc(OC3OC(CO)C(O)C(O)C3O)c2c1O.CC1OC(O)C(O)C(O)C1O (centres undefined)
T47D
  GI50: > 100 µM (inactive)

## Cc1ccc2c(c1)C(C1Cc3c(C)cccc3C1=O)OC2=O (centres undefined)
T47D
  GI50: > 100 µM (inactive)

## O=c1[nH]nc(Cc2ccccc2)n1/N=C/c1ccco1
T47D
  GI50: > 100 µM (inactive)

## COC(=O)/C(=C/CC(N=C(c1ccccc1)c1ccccc1)C(=O)OC)N=C(c1ccccc1)c1ccccc1 (centres undefined)
DLD-1
  GI50: > 100 µM (inactive)
LXFL 529
  GI50: > 100 µM (inactive)
M19-MEL
  GI50: > 100 µM (inactive)
XF498
  GI50: > 100 µM (inactive)

## CC#CC1C(OC(=O)c2ccccc2)CCCC1(CI)N=[N+]=[N-] (centres undefined)
HOP-18
  GI50: > 100 µM (inactive)
DLD-1
  GI50: 52.1 µM (inactive)
LXFL 529
  GI50: 36.4 µM (inactive)
M19-MEL
  GI50: 48.5 µM (inactive)
SNB-78
  GI50: > 100 µM (inactive)
XF498
  GI50: 20.1 µM (inactive)
KM-20L2
  GI50: 60.7 µM (inactive)

## CCCn1c2ccccc2c2ccc3c(c21)C(=O)C=CC3=O
T47D
  GI50: 2 µM (inactive)

## OC1(C23CC4CC(CC(C4)C2)C3)CSCC1(O)C12CC3CC(CC(C3)C1)C2 (centres undefined)
RXF 631
  GI50: > 100 µM (inactive)
DLD-1
  GI50: > 100 µM (inactive)
LXFL 529
  GI50: > 100 µM (inactive)
M19-MEL
  GI50: 64.6 µM (inactive)
SNB-78
  GI50: > 100 µM (inactive)
XF498
  GI50: > 100 µM (inactive)

## O=c1c2ccccc2nc2sc(/N=C/C=C/c3ccccc3)nn12
T47D
  GI50: > 100 µM (inactive)

## CN(C)C(=Nc1nc(N(C)C)s[s+]1)N(C)C
RXF 631
  GI50: > 100 µM (inactive)
HOP-18
  GI50: > 100 µM (inactive)
DLD-1
  GI50: > 100 µM (inactive)
LXFL 529
  GI50: > 100 µM (inactive)
M19-MEL
  GI50: > 100 µM (inactive)
XF498
  GI50: > 100 µM (inactive)
KM-20L2
  GI50: > 100 µM (inactive)

## N=C(N)Nc1ccc(CC(N)C(=O)O)cc1 (centres undefined)
T47D
  GI50: > 12.5 µM (inactive)

## COC(=O)C(Cc1c(-c2[nH]c3ccccc3c2CC(NC(C)=O)C(=O)OC)[nH]c2ccccc12)NC(C)=O (centres undefined)
T47D
  GI50: > 100 µM (inactive)

## COc1cc2c(cc1OC)C1c3ccccc3CCCN1CC2 (centres undefined)
T47D
  GI50: > 100 µM (inactive)

## CC1=NN(C(=O)CC(=O)Nc2ccccc2Cl)C(=O)C1/N=N/c1ccc(C(=O)O)cc1 (centres undefined)
T47D
  GI50: 53.2 µM (inactive)

## CC1(C)CCC[C@@]2(C)C1CC[C@H]1CC(O)C3(C)CCC12C3 (some centres undefined)
RXF 631
  GI50: 19.1 µM (inactive)
DLD-1
  GI50: 17.1 µM (inactive)
LXFL 529
  GI50: 17.2 µM (inactive)
M19-MEL
  GI50: 21.1 µM (inactive)
SNB-78
  GI50: 17.2 µM (inactive)
XF498
  GI50: 17.4 µM (inactive)
KM-20L2
  GI50: 18.9 µM (inactive)

## c1ccc2c(c1)CCN1CCc3c([nH]c4ccccc34)C21 (centres undefined)
T47D
  GI50: 32.5 µM (inactive)

## Nc1nccc(Nc2ccc(S(N)(=O)=O)cc2)n1
T47D
  GI50: > 100 µM (inactive)
